Results: ChEMBL document CHEMBL2440071, “Antimycobacterial and herbicidal activity of ring-substituted 1-hydroxynaphthalene-2-carboxanilides” (Bioorg Med Chem, 2013)
Converted amounts (≈) assume the structure as drawn.

system: Mycobacterium marinum; assay: Antimycobacterial activity against Mycobacterium marinum CAMP 5644 after 21 days by two-fold serial dilution method; type: functional; details: CAMP 5644, 504 h

Compound	MIC [µM]
O=C(Nc1cccc(Br)c1)c1ccc2ccccc2c1O	> 748
COc1ccccc1NC(=O)c1ccc2ccccc2c1O	> 873
Cc1ccc(NC(=O)c2ccc3ccccc3c2O)cc1	115 (≈ 31.9 µg/mL)
COc1cccc(NC(=O)c2ccc3ccccc3c2O)c1	54.5 (≈ 16 µg/mL)
O=C(Nc1ccccc1F)c1ccc2ccccc2c1O	56.8 (≈ 16 µg/mL)
O=C(Nc1ccc(C(F)(F)F)cc1)c1ccc2ccccc2c1O	187 (≈ 62 µg/mL)
Cc1ccccc1NC(=O)c1ccc2ccccc2c1O	28.8 (≈ 7.99 µg/mL)
COc1ccc(NC(=O)c2ccc3ccccc3c2O)cc1	> 873
O=C(Nc1ccccc1)c1ccc2ccccc2c1O	60.7 (≈ 16 µg/mL)
NNC(=O)c1ccncc1 [ISONIAZID]	467 (≈ 64 µg/mL)
O=C(Nc1cccc(C(F)(F)F)c1)c1ccc2ccccc2c1O	46.7 (≈ 15.5 µg/mL)

system: not listed separately; assay: Cytotoxicity against human THP1 cells after 24 hrs by lactate dehydrogenase assay; type: cell-based; details: THP-1 cells, read-out: LD50

Compound	CC50 at 24 h [µM]
CC[C@@]1(O)C(=O)OCc2c1cc1n(c2=O)Cc2cc3ccccc3nc2-1 [CAMPTOTHECIN]	0.16
O=C(Nc1cccc(Br)c1)c1ccc2ccccc2c1O	> 20
O=C(Nc1ccc(C(F)(F)F)cc1)c1ccc2ccccc2c1O	0.6
Cc1ccccc1NC(=O)c1ccc2ccccc2c1O	> 20
O=C(Nc1ccccc1)c1ccc2ccccc2c1O	> 20
O=C(Nc1cccc(C(F)(F)F)c1)c1ccc2ccccc2c1O	1

system: not listed separately; assay: Lipophilicity, log K of the compound by RP-HPLC analysis; type: physicochemical; details: not given

Compound	log K
O=C(Nc1cccc(Br)c1)c1ccc2ccccc2c1O	1.1784
COc1ccccc1NC(=O)c1ccc2ccccc2c1O	1.4716
Cc1ccc(NC(=O)c2ccc3ccccc3c2O)cc1	1.4008
COc1cccc(NC(=O)c2ccc3ccccc3c2O)c1	1.2849
O=C(Nc1ccccc1F)c1ccc2ccccc2c1O	0.8296
O=C(Nc1ccc(C(F)(F)F)cc1)c1ccc2ccccc2c1O	1.1158
Cc1ccccc1NC(=O)c1ccc2ccccc2c1O	1.1176
COc1ccc(NC(=O)c2ccc3ccccc3c2O)cc1	1.1882
O=C(Nc1ccccc1)c1ccc2ccccc2c1O	1.2302
O=C(Nc1cccc(C(F)(F)F)c1)c1ccc2ccccc2c1O	1.127

system: Mycolicibacterium smegmatis; assay: Antimycobacterial activity against Mycobacterium smegmatis ATCC 700084 after 3 days by two-fold serial dilution method; type: functional; details: ATCC 700084, 72 h

Compound	MIC [µM]
O=C(Nc1cccc(Br)c1)c1ccc2ccccc2c1O	> 748
COc1ccccc1NC(=O)c1ccc2ccccc2c1O	> 873
Cc1ccc(NC(=O)c2ccc3ccccc3c2O)cc1	923 (≈ 256 µg/mL)
COc1cccc(NC(=O)c2ccc3ccccc3c2O)c1	> 873
O=C(Nc1ccccc1F)c1ccc2ccccc2c1O	228 (≈ 64.1 µg/mL)
O=C(Nc1ccc(C(F)(F)F)cc1)c1ccc2ccccc2c1O	> 748
Cc1ccccc1NC(=O)c1ccc2ccccc2c1O	231 (≈ 64.1 µg/mL)
COc1ccc(NC(=O)c2ccc3ccccc3c2O)cc1	> 873
O=C(Nc1ccccc1)c1ccc2ccccc2c1O	243 (≈ 64 µg/mL)
NNC(=O)c1ccncc1 [ISONIAZID]	117 (≈ 16 µg/mL)
O=C(Nc1cccc(C(F)(F)F)c1)c1ccc2ccccc2c1O	> 748

system: Spinacia oleracea; assay: Inhibition of PS2 in spinach chloroplasts assessed as photoreduction of DCPIP measured remaining activity incubated for 2 mins in dark condition prior to testing by spectrophotometry in presence of diphenylcarbazide relative to control; values are per cent of control; design: concentration or dose not given beside the values; details: not given

Compound	residual activity [%]
O=C(Nc1cccc(Br)c1)c1ccc2ccccc2c1O	95
COc1ccccc1NC(=O)c1ccc2ccccc2c1O	95
Cc1ccc(NC(=O)c2ccc3ccccc3c2O)cc1	95
COc1cccc(NC(=O)c2ccc3ccccc3c2O)c1	95
O=C(Nc1ccccc1F)c1ccc2ccccc2c1O	95
O=C(Nc1ccc(C(F)(F)F)cc1)c1ccc2ccccc2c1O	95
Cc1ccccc1NC(=O)c1ccc2ccccc2c1O	95
COc1ccc(NC(=O)c2ccc3ccccc3c2O)cc1	95
O=C(Nc1ccccc1)c1ccc2ccccc2c1O	95
O=C(Nc1cccc(C(F)(F)F)c1)c1ccc2ccccc2c1O	95

system: Mycobacterium marinum; assay: Ratio of isoniazid MIC to compound MIC for Mycobacterium marinum CAMP 5644; type: functional; details: not given

Compound	Ratio
Cc1ccccc1NC(=O)c1ccc2ccccc2c1O	16

system: Mycobacterium kansasii; assay: Antimycobacterial activity against Mycobacterium kansasii DSM 44162 after 7 days by two-fold serial dilution method; type: functional; details: DSM 44162, 168 h

Compound	MIC [µM]
O=C(Nc1cccc(Br)c1)c1ccc2ccccc2c1O	> 748
COc1ccccc1NC(=O)c1ccc2ccccc2c1O	> 873
Cc1ccc(NC(=O)c2ccc3ccccc3c2O)cc1	57.7 (≈ 16 µg/mL)
COc1cccc(NC(=O)c2ccc3ccccc3c2O)c1	> 873
O=C(Nc1ccccc1F)c1ccc2ccccc2c1O	> 910
O=C(Nc1ccc(C(F)(F)F)cc1)c1ccc2ccccc2c1O	23.3 (≈ 7.72 µg/mL)
Cc1ccccc1NC(=O)c1ccc2ccccc2c1O	115 (≈ 31.9 µg/mL)
COc1ccc(NC(=O)c2ccc3ccccc3c2O)cc1	> 873
O=C(Nc1ccccc1)c1ccc2ccccc2c1O	15.2 (≈ 4 µg/mL)
O=C(Nc1cccc(C(F)(F)F)c1)c1ccc2ccccc2c1O	> 748

system: Spinacia oleracea; assay: Inhibition of PS2 in spinach chloroplasts assessed as photoreduction of DCPIP measured remaining activity incubated for 2 mins in dark condition prior to testing by spectrophotometry relative to control; values are per cent of control; design: concentration or dose not given beside the values; details: not given

Compound	residual activity [%]
O=C(Nc1cccc(Br)c1)c1ccc2ccccc2c1O	10
COc1ccccc1NC(=O)c1ccc2ccccc2c1O	10
Cc1ccc(NC(=O)c2ccc3ccccc3c2O)cc1	10
COc1cccc(NC(=O)c2ccc3ccccc3c2O)c1	10
O=C(Nc1ccccc1F)c1ccc2ccccc2c1O	10
O=C(Nc1ccc(C(F)(F)F)cc1)c1ccc2ccccc2c1O	10
Cc1ccccc1NC(=O)c1ccc2ccccc2c1O	10
COc1ccc(NC(=O)c2ccc3ccccc3c2O)cc1	10
O=C(Nc1ccccc1)c1ccc2ccccc2c1O	10
O=C(Nc1cccc(C(F)(F)F)c1)c1ccc2ccccc2c1O	10

system: not listed separately; assay: Inhibition of PS2 in spinach chloroplasts assessed as photoreduction of DCPIP incubated for 2 mins in dark condition prior to testing by spectrophotometry; design: species or system Spinacia oleracea; details: not given

Compound	IC50 [µM]
CN(C)C(=O)Nc1ccc(Cl)c(Cl)c1 [DCMU]	1.9
O=C(Nc1cccc(Br)c1)c1ccc2ccccc2c1O	8.2
COc1ccccc1NC(=O)c1ccc2ccccc2c1O	200
Cc1ccc(NC(=O)c2ccc3ccccc3c2O)cc1	28.7
COc1cccc(NC(=O)c2ccc3ccccc3c2O)c1	23.5
O=C(Nc1ccccc1F)c1ccc2ccccc2c1O	57
O=C(Nc1ccc(C(F)(F)F)cc1)c1ccc2ccccc2c1O	36.5
Cc1ccccc1NC(=O)c1ccc2ccccc2c1O	62.8
COc1ccc(NC(=O)c2ccc3ccccc3c2O)cc1	79.5
O=C(Nc1ccccc1)c1ccc2ccccc2c1O	31.3
O=C(Nc1cccc(C(F)(F)F)c1)c1ccc2ccccc2c1O	5.3
